# Measurements: patent US4237305A, “Substituted phenylacetic acid compounds and process for preparation thereof” (Fujisawa Pharmaceutical Co., Ltd., priority 1976, dated 1980)
# What was measured:
# [1] = test system: Pseudomonas aeruginosa 10490; test: MIC (Minimum Inhibitory Concentration) determined by conventional method, Pseudomonas aeruginosa 10490; format: cell-based
# Description: (§1) MIC (Minimum Inhibitory Concentration) value
# (§2) determined by conventional method
# Escherichia coli 114 = test: MIC (Minimum Inhibitory Concentration) determined by conventional method, Escherichia coli 114; format: cell-based
# Description: as §1, §2
smiles,measurement,setting,value
NC(CCOc1ccc(C(=O)C(=O)NC2CN(C(C(=O)O)c3ccc(O)cc3)C2=O)cc1)C(=O)O (centres unmarked) [d.circle.],MIC (Minimum Inhibitory Concentration) value,[1],25
same,MIC (Minimum Inhibitory Concentration) value,Escherichia coli 114,1.6
